# Test results taken from patent US5696083A, “Personal care composition containing pyrithione and polymyxin” (Olin Corporation, priority 1994, dated 1997).
# Key:
# Experiment in all cases: MIC in Tryptic Soy Broth, compounds alone and in mixtures
# Assay type in all cases: cell-based
# Alcaligens faecalis = conditions: 28° C.; for Minimum Inhibitory Concentration, Compound Used Alone: Tryptic Soy Broth
# Experimental: (§1) Determinations of minimum inhibitory concentrations (MIC's) of the two compounds (pyrithione salts and/or polymyxin sulfate) in a nutrient broth (alone and in mixtures) were conducted to evaluate interactions. Stock solutions of pyrithione salts and/or polymyxin salts were diluted in Tryptic Soy Broth (Difco), and the dilutions were inoculated with an equal volume of bacterial culture (10^6 /ml) or fungal spore suspension (10^5 /ml) in Tryptic Soy Broth and incubated at 28° C. for 3-7 days.
# (§2) The interactions of the antimicrobials were determined according to accepted procedures (M. C. Berenbaum [Tables 1 and 2] and P. F. Dougherty "Microdilution Transfer Plate Technique for Determining In Vitro Synergy of Antimicrobial Agents", ANTIMICROBIAL AGENTS AND CHEMOTHERAPY, Vol. 11, No. 2, p. 225-228 (Feb. 1977, American Society for Microbiology) [Tables 3 and 4]). The concentration of each agent in the combination that inhibits the organisms is expressed as a fraction of the concentration that causes the same effect when the same agent is tested alone (i.e., its fractional inhibitory concentration, FIC). If the sum of the FIC's is 1, the combination is additive in its antimicrobial effect; if the sum is <1, the combination is synergistic; and if the sum is >1, the combination is antagonistic.
# (§3) ^a Compounds were serially diluted in Tryptic soy Broth (DIFCO),
# (§4) ^b Each dilution contained 10^6 bacteria/ml of 10^5 fungi/ml.
# (§5) ^a Stock solutions of ZP in dimethylsulfoxide and PB in sterile water
# Aspergillus niger = conditions: 28° C.; for Minimum Inhibitory Concentration, Compound Used Alone: Tryptic Soy Broth
# Experimental: as §1, §2, §3, §4, §5
# Aureobasidium pullulans = conditions: 28° C.; for Minimum Inhibitory Concentration, Compound Used Alone: Tryptic Soy Broth
# Experimental: as §1, §2, §3, §4, §5
# Candida albicans = conditions: 28° C.; for Minimum Inhibitory Concentration, Compound Used Alone: Tryptic Soy Broth
# Experimental: as §1, §2, §3, §4, §5
# Cephalosporium sp. = conditions: 28° C.; for Minimum Inhibitory Concentration, Compound Used Alone: Tryptic Soy Broth
# Experimental: as §1, §2, §3, §4, §5
# Chaetomium globosium = conditions: 28° C.; for Minimum Inhibitory Concentration, Compound Used Alone: Tryptic Soy Broth
# Experimental: as §1, §2, §3, §4, §5
# Citrobacter freundii = conditions: 28° C.; for Minimum Inhibitory Concentration, Compound Used Alone: Tryptic Soy Broth
# Experimental: as §1, §2, §3, §4, §5
# Fusarium solani = conditions: 28° C.; for Minimum Inhibitory Concentration, Compound Used Alone: Tryptic Soy Broth
# Experimental: as §1, §2, §3, §4, §5
# Gliocladium virens = conditions: 28° C.; for Minimum Inhibitory Concentration, Compound Used Alone: Tryptic Soy Broth
# Experimental: as §1, §2, §3, §4, §5
# Penicillin pinophilium = conditions: 28° C.; for Minimum Inhibitory Concentration, Compound Used Alone: Tryptic Soy Broth
# Experimental: as §1, §2, §3, §4, §5
# Proteus mirabilis = conditions: 28° C.; for Minimum Inhibitory Concentration, Compound Used Alone: Tryptic Soy Broth
# Experimental: as §1, §2, §3, §4, §5
# Pseudomonas Stutzeri = conditions: 28° C.; for Minimum Inhibitory Concentration, Compound Used Alone: Tryptic Soy Broth
# Experimental: as §1, §2, §3, §4, §5
# Pseudomonas aeruginosa = conditions: 28° C.; for Minimum Inhibitory Concentration, Compound Used Alone: Tryptic Soy Broth
# Experimental: as §1, §2, §3, §4, §5
# Pseudomonas fluorescens = conditions: 28° C.; for Minimum Inhibitory Concentration, Compound Used Alone: Tryptic Soy Broth
# Experimental: as §1, §2, §3, §4, §5
# Pseudomonas oleovorans = conditions: 28° C.; for Minimum Inhibitory Concentration, Compound Used Alone: Tryptic Soy Broth
# Experimental: as §1, §2, §3, §4, §5
# Pseudomonas rubescens = conditions: 28° C.; for Minimum Inhibitory Concentration, Compound Used Alone: Tryptic Soy Broth
# Experimental: as §1, §2, §3, §4, §5
# [1] = system: Trichophyton mentagrophytes; conditions: 28° C.; for Minimum Inhibitory Concentration, Compound Used Alone: Tryptic Soy Broth
# Experimental: as §1, §2, §3, §4, §5
# Fusarium sp. = conditions: 28° C.
# Excerpt: as §3, §4, §5
# [2] = Table 1, 3 days, PB sulfate 7610 units/mg
# [3] = Table 2, 6 days, PB sulfate 7730 units/mg
# [4] = Table 1, 6-7 days, PB sulfate 7610 units/mg
# [5] = Table 2, 7 days, PB sulfate 7730 units/mg
# [6] = Table 2, concentration of the component in ZP+PB mixture, ZP/PB ratio 1/32-1/8, 7 days
# [7] = Table 1, concentration of the component in SP+PB mixture, SP/PB ratio 1/20-1/10, 6-7 days
# [8] = Table 1, concentration of the component in SP+PB mixture, SP/PB ratio 1, 6-7 days
# [9] = Table 2, concentration of the component in ZP+PB mixture, ZP/PB ratio 1/8-1, 7 days
# [10] = Table 1, concentration of the component in SP+PB mixture, SP/PB ratio 650, 3 days
substance,measurement,setting,value
Polymyxin B sulfate [PB],"Minimum Inhibitory Concentration, Compound Used Alone",Alcaligens faecalis; [2],1.4 ppm
same,"Minimum Inhibitory Concentration, Mixture","Alcaligens faecalis; Table 1, concentration of the component in SP+PB mixture, SP/PB ratio 5-41, 3 days",0.5 ppm
same,"Minimum Inhibitory Concentration, Compound Used Alone",Alcaligens faecalis; [3],3.3 ppm
same,"Minimum Inhibitory Concentration, Mixture","Alcaligens faecalis; Table 2, concentration of the component in ZP+PB mixture, ZP/PB ratio 8-32, 6 days",0.6 ppm
same,"Minimum Inhibitory Concentration, Compound Used Alone",Aspergillus niger; [4],1536.0 ppm
same,"Minimum Inhibitory Concentration, Mixture","Aspergillus niger; Table 1, concentration of the component in SP+PB mixture, SP/PB ratio 1/10, 6-7 days",256.0 ppm
same,"Minimum Inhibitory Concentration, Compound Used Alone",Aspergillus niger; [5],1024.0 ppm
same,"Minimum Inhibitory Concentration, Mixture",Aspergillus niger; [6],298.7 ppm
same,"Minimum Inhibitory Concentration, Compound Used Alone",Aureobasidium pullulans; [4],256.0 ppm
same,"Minimum Inhibitory Concentration, Mixture",Aureobasidium pullulans; [7],48.0 ppm
same,"Minimum Inhibitory Concentration, Compound Used Alone",Aureobasidium pullulans; [5],288.0 ppm
same,"Minimum Inhibitory Concentration, Mixture","Aureobasidium pullulans; Table 2, concentration of the component in ZP+PB mixture, ZP/PB ratio 1/32-1/16, 7 days",80.0 ppm
same,"Minimum Inhibitory Concentration, Compound Used Alone",Candida albicans; [4],256.0 ppm
same,"Minimum Inhibitory Concentration, Mixture",Candida albicans; [7],64.0 ppm
same,"Minimum Inhibitory Concentration, Compound Used Alone",Candida albicans; [5],341.3 ppm
same,"Minimum Inhibitory Concentration, Mixture",Candida albicans; [6],74.7 ppm
same,"Minimum Inhibitory Concentration, Compound Used Alone",Cephalosporium sp.; [4],256.0 ppm
same,"Minimum Inhibitory Concentration, Mixture",Cephalosporium sp.; [8],12.0 ppm
same,"Minimum Inhibitory Concentration, Compound Used Alone",Cephalosporium sp.; [5],170.7 ppm
same,"Minimum Inhibitory Concentration, Mixture","Cephalosporium sp.; Table 2, concentration of the component in ZP+PB mixture, ZP/PB ratio 1/16-1/8, 7 days",42.7 ppm
same,"Minimum Inhibitory Concentration, Compound Used Alone",Chaetomium globosium; [4],24.0 ppm
same,"Minimum Inhibitory Concentration, Mixture","Chaetomium globosium; Table 1, concentration of the component in SP+PB mixture, SP/PB ratio 1/10-1/5, 6-7 days",16.0 ppm
same,"Minimum Inhibitory Concentration, Compound Used Alone",Chaetomium globosium; [5],85.3 ppm
same,"Minimum Inhibitory Concentration, Mixture",Chaetomium globosium; [9],37.3 ppm
same,"Minimum Inhibitory Concentration, Compound Used Alone",Citrobacter freundii; [2],0.5 ppm
same,"Minimum Inhibitory Concentration, Mixture","Citrobacter freundii; Table 1, concentration of the component in SP+PB mixture, SP/PB ratio 41-81, 3 days",0.1 ppm
same,"Minimum Inhibitory Concentration, Compound Used Alone",Citrobacter freundii; [3],0.4 ppm
same,"Minimum Inhibitory Concentration, Mixture","Citrobacter freundii; Table 2, concentration of the component in ZP+PB mixture, ZP/PB ratio 16-64, 6 days",0.1 ppm
same,"Minimum Inhibitory Concentration, Compound Used Alone",Fusarium solani; [4],128.0 ppm
same,"Minimum Inhibitory Concentration, Mixture",Fusarium solani; [8],32.0 ppm
same,"Minimum Inhibitory Concentration, Compound Used Alone",Fusarium solani; [5],85.3 ppm
same,"Minimum Inhibitory Concentration, Mixture",Fusarium solani; [9],37.3 ppm
same,"Minimum Inhibitory Concentration, Compound Used Alone",Gliocladium virens; [4],74.7 ppm
same,"Minimum Inhibitory Concentration, Mixture","Gliocladium virens; Table 1, concentration of the component in SP+PB mixture, SP/PB ratio 1/10-1, 6-7 days",21.3 ppm
same,"Minimum Inhibitory Concentration, Compound Used Alone",Gliocladium virens; [5],64.0 ppm
same,"Minimum Inhibitory Concentration, Mixture","Gliocladium virens; Table 2, concentration of the component in ZP+PB mixture, ZP/PB ratio 1-2, 7 days",20.0 ppm
same,"Minimum Inhibitory Concentration, Compound Used Alone",Penicillin pinophilium; [4],256.0 ppm
same,"Minimum Inhibitory Concentration, Mixture",Penicillin pinophilium; [7],48.0 ppm
same,"Minimum Inhibitory Concentration, Compound Used Alone",Penicillin pinophilium; [5],128.0 ppm
same,"Minimum Inhibitory Concentration, Mixture","Penicillin pinophilium; Table 2, concentration of the component in ZP+PB mixture, ZP/PB ratio 1/8, 7 days",32.0 ppm
same,"Minimum Inhibitory Concentration, Compound Used Alone",Proteus mirabilis; [2],> 2048.0 ppm
same,"Minimum Inhibitory Concentration, Mixture","Proteus mirabilis; Table 1, concentration of the component in SP+PB mixture, SP/PB ratio 1/20-1, 3 days",288.0 ppm
same,"Minimum Inhibitory Concentration, Compound Used Alone",Proteus mirabilis; [3],> 2048.0 ppm
same,"Minimum Inhibitory Concentration, Mixture","Proteus mirabilis; Table 2, concentration of the component in ZP+PB mixture, ZP/PB ratio 1/32, 6 days",64.0 ppm
same,"Minimum Inhibitory Concentration, Compound Used Alone",Pseudomonas Stutzeri; [2],0.3 ppm
same,"Minimum Inhibitory Concentration, Mixture","Pseudomonas Stutzeri; Table 1, concentration of the component in SP+PB mixture, SP/PB ratio 325-650, 3 days",0.1 ppm
same,"Minimum Inhibitory Concentration, Compound Used Alone",Pseudomonas Stutzeri; [3],0.3 ppm
same,"Minimum Inhibitory Concentration, Mixture","Pseudomonas Stutzeri; Table 2, concentration of the component in ZP+PB mixture, ZP/PB ratio 16-128, 6 days",< 0.1 ppm
same,"Minimum Inhibitory Concentration, Compound Used Alone",Pseudomonas aeruginosa; [2],0.7 ppm
same,"Minimum Inhibitory Concentration, Mixture","Pseudomonas aeruginosa; Table 1, concentration of the component in SP+PB mixture, SP/PB ratio 163-325, 3 days",0.3 ppm
same,"Minimum Inhibitory Concentration, Compound Used Alone",Pseudomonas aeruginosa; [3],1.0 ppm
same,"Minimum Inhibitory Concentration, Mixture","Pseudomonas aeruginosa; Table 2, concentration of the component in ZP+PB mixture, ZP/PB ratio 128-256, 6 days",0.5 ppm
same,"Minimum Inhibitory Concentration, Compound Used Alone",Pseudomonas fluorescens; [2],10.7 ppm
same,"Minimum Inhibitory Concentration, Mixture","Pseudomonas fluorescens; Table 1, concentration of the component in SP+PB mixture, SP/PB ratio 3-10, 3 days",1.2 ppm
same,"Minimum Inhibitory Concentration, Compound Used Alone",Pseudomonas fluorescens; [3],6.7 ppm
same,"Minimum Inhibitory Concentration, Mixture","Pseudomonas fluorescens; Table 2, concentration of the component in ZP+PB mixture, ZP/PB ratio 8-16, 6 days",0.4 ppm
same,"Minimum Inhibitory Concentration, Compound Used Alone",Pseudomonas oleovorans; [2],0.3 ppm
same,"Minimum Inhibitory Concentration, Mixture",Pseudomonas oleovorans; [10],< 0.1 ppm
same,"Minimum Inhibitory Concentration, Compound Used Alone",Pseudomonas oleovorans; [3],0.5 ppm
same,"Minimum Inhibitory Concentration, Mixture","Pseudomonas oleovorans; Table 2, concentration of the component in ZP+PB mixture, ZP/PB ratio 16-32, 6 days",0.2 ppm
same,"Minimum Inhibitory Concentration, Compound Used Alone",Pseudomonas rubescens; [2],< 0.1 ppm
same,"Minimum Inhibitory Concentration, Mixture",Pseudomonas rubescens; [10],< 0.1 ppm
same,"Minimum Inhibitory Concentration, Compound Used Alone",Pseudomonas rubescens; [3],< 0.1 ppm
same,"Minimum Inhibitory Concentration, Mixture","Pseudomonas rubescens; Table 2, concentration of the component in ZP+PB mixture, ZP/PB ratio 256, 6 days",< 0.1 ppm
same,"Minimum Inhibitory Concentration, Compound Used Alone",[1]; [4],32.0 ppm
same,"Minimum Inhibitory Concentration, Mixture","[1]; Table 1, concentration of the component in SP+PB mixture, SP/PB ratio 1/10-1/3, 6-7 days",26.7 ppm
same,"Minimum Inhibitory Concentration, Compound Used Alone",[1]; [5],53.0 ppm
same,"Minimum Inhibitory Concentration, Mixture","[1]; Table 2, concentration of the component in ZP+PB mixture, ZP/PB ratio 1/4-1/2, 7 days",26.7 ppm
same,"Minimum Inhibitory Concentration, Mixture",Fusarium sp.; [8],32.0 ppm
same,"Minimum Inhibitory Concentration, Compound Used Alone","Fusarium sp.; Table 2, alone, Tryptic Soy Broth, 7 days, PB sulfate 7730 units/mg",106.7 ppm
